Reference: the supplement of paper PMC10307832

Columns and labels:
Experiment in all cases: relative viability (nuclei count vs DMSO), 5 days (fraction); higher = more cells survive
PC-14 = test system: PC-14
Outline: (§1)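 Five library-drug doses in √10 steps were combined with a fixed anchor-drug dose, or a single drug was given alone, by pin tool to lung cancer cell lines in 1536-well plates the day after seeding. Nuclei were stained and counted after 5 days. Relative viability is the nuclei count in treated wells over that in vehicle wells, taken as the median of duplicate plates.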

SK-MES-1 = test system: SK-MES-1
Outline: as §1

NCI-H2087 = test system: NCI-H2087
Outline: as §1

NCI-H596 = test system: NCI-H596
Outline: as §1

ChaGo-K-1 = test system: ChaGo-K-1
Outline: as §1

H3255 = test system: H3255
Outline: as §1

NCI-H1755 = test system: NCI-H1755
Outline: as §1

EMC-BAC-2 = test system: EMC-BAC-2
Outline: as §1

201T = test system: 201T
Outline: as §1

NCI-H2126 = test system: NCI-H2126
Outline: as §1

NCI-H322M = test system: NCI-H322M
Outline: as §1

NCI-H2009 = test system: NCI-H2009
Outline: as §1

ABC-1 = test system: ABC-1
Outline: as §1

LXF-289 = test system: LXF-289
Outline: as §1

HOP-62 = test system: HOP-62
Outline: as §1

NCI-H3122 = test system: NCI-H3122
Outline: as §1

CAL-12T = test system: CAL-12T
Outline: as §1

NCI-H1651 = test system: NCI-H1651
Outline: as §1

LK-2 = test system: LK-2
Outline: as §1

NCI-H441 = test system: NCI-H441
Outline: as §1

NCI-H1734 = test system: NCI-H1734
Outline: as §1

NCI-H2170 = test system: NCI-H2170
Outline: as §1

NCI-H647 = test system: NCI-H647
Outline: as §1

O=c1[nH]c2ccccc2n1C1CCN(CCCC(c2ccc(F)cc2)c2ccc(F)cc2)CC1 [Pimozide] + Cc1cc(Nc2cc(N3CCN(C)CC3)nc(Sc3ccc(NC(=O)C4CC4)cc3)n2)n[nH]1 [Tozasertib] (partner 0.1 µM) showed a relative viability (PC-14; first compound 0.253 µM) of 0.539, a relative viability (PC-14; first compound 0.8 µM) of 0.481 and a relative viability (PC-14; first compound 2.53 µM) of 0.519. It also gave a relative viability (PC-14; first compound 8 µM) of 0.552, a relative viability (SK-MES-1; first compound 0.08 µM) of 0.821 and a relative viability (SK-MES-1; first compound 0.253 µM) of 0.822. For the same molecule, the relative viability (SK-MES-1; first compound 0.8 µM) was 0.873, the relative viability (SK-MES-1; first compound 2.53 µM) was 0.824 and the relative viability (SK-MES-1; first compound 8 µM) was 0.815. For the same molecule, the relative viability (NCI-H2087; first compound 0.08 µM) was 0.262, the relative viability (NCI-H2087; first compound 0.253 µM) was 0.232 and the relative viability (NCI-H2087; first compound 2.53 µM) was 0.233. For the same molecule, the relative viability (NCI-H2087; first compound 8 µM) was 0.195, the relative viability (NCI-H596; first compound 0.08 µM) was 0.929 and the relative viability (NCI-H596; first compound 0.253 µM) was 0.959. The relative viability (NCI-H596; first compound 0.8 µM) was 0.893, the relative viability (NCI-H596; first compound 2.53 µM) was 0.839 and the relative viability (NCI-H596; first compound 8 µM) was 0.882. For the same molecule, the relative viability (ChaGo-K-1; first compound 0.08 µM) was 0.22, the relative viability (ChaGo-K-1; first compound 0.253 µM) was 0.235 and the relative viability (ChaGo-K-1; first compound 0.8 µM) was 0.24. For the same molecule, the relative viability (ChaGo-K-1; first compound 2.53 µM) was 0.212, the relative viability (ChaGo-K-1; first compound 8 µM) was 0.211 and the relative viability (H3255; first compound 0.253 µM) was 0.592. It also gave a relative viability (H3255; first compound 0.8 µM) of 0.47, a relative viability (H3255; first compound 2.53 µM) of 0.584 and a relative viability (H3255; first compound 8 µM) of 0.659. For the same molecule, the relative viability (NCI-H1755; first compound 0.08 µM) was 0.562, the relative viability (NCI-H1755; first compound 0.253 µM) was 0.58 and the relative viability (NCI-H1755; first compound 0.8 µM) was 0.591. For the same molecule, the relative viability (NCI-H1755; first compound 2.53 µM) was 0.491, the relative viability (NCI-H1755; first compound 8 µM) was 0.57 and the relative viability (EMC-BAC-2; first compound 0.08 µM) was 0.292. It also gave a relative viability (EMC-BAC-2; first compound 0.253 µM) of 0.284, a relative viability (EMC-BAC-2; first compound 0.8 µM) of 0.272 and a relative viability (EMC-BAC-2; first compound 2.53 µM) of 0.225. For the same molecule, the relative viability (EMC-BAC-2; first compound 8 µM) was 0.297, the relative viability (201T; first compound 0.08 µM) was 0.88 and the relative viability (201T; first compound 0.253 µM) was 0.94. It also gave a relative viability (201T; first compound 0.8 µM) of 0.871, a relative viability (201T; first compound 2.53 µM) of 0.747 and a relative viability (201T; first compound 8 µM) of 0.636. For the same molecule, the relative viability (NCI-H2126; first compound 0.08 µM) was 0.861, the relative viability (NCI-H2126; first compound 0.253 µM) was 0.787 and the relative viability (NCI-H2126; first compound 0.8 µM) was 0.756. For the same molecule, the relative viability (NCI-H2126; first compound 2.53 µM) was 0.817, the relative viability (NCI-H2126; first compound 8 µM) was 0.772 and the relative viability (NCI-H322M; first compound 0.253 µM) was 0.51. For the same molecule, the relative viability (NCI-H322M; first compound 0.8 µM) was 0.523, the relative viability (NCI-H322M; first compound 2.53 µM) was 0.515 and the relative viability (NCI-H322M; first compound 8 µM) was 0.425. For the same molecule, the relative viability (NCI-H2009; first compound 0.08 µM) was 0.696, the relative viability (NCI-H2009; first compound 0.253 µM) was 0.754 and the relative viability (NCI-H2009; first compound 0.8 µM) was 0.683. For the same molecule, the relative viability (NCI-H2009; first compound 2.53 µM) was 0.58, the relative viability (NCI-H2009; first compound 8 µM) was 0.577 and the relative viability (ABC-1; first compound 0.08 µM) was 0.213. For the same molecule, the relative viability (ABC-1; first compound 0.253 µM) was 0.214, the relative viability (ABC-1; first compound 0.8 µM) was 0.184 and the relative viability (ABC-1; first compound 2.53 µM) was 0.178. It also gave a relative viability (ABC-1; first compound 8 µM) of 0.203, a relative viability (LXF-289; first compound 0.08 µM) of 0.208 and a relative viability (LXF-289; first compound 0.253 µM) of 0.167. The relative viability (LXF-289; first compound 0.8 µM) was 0.173, the relative viability (LXF-289; first compound 2.53 µM) was 0.14 and the relative viability (LXF-289; first compound 8 µM) was 0.126. The relative viability (HOP-62; first compound 0.08 µM) was 0.344, the relative viability (HOP-62; first compound 0.253 µM) was 0.353 and the relative viability (HOP-62; first compound 2.53 µM) was 0.331. The relative viability (HOP-62; first compound 8 µM) was 0.321, the relative viability (NCI-H3122; first compound 0.08 µM) was 0.397 and the relative viability (NCI-H3122; first compound 0.253 µM) was 0.386. For the same molecule, the relative viability (NCI-H3122; first compound 0.8 µM) was 0.353, the relative viability (NCI-H3122; first compound 2.53 µM) was 0.216 and the relative viability (NCI-H3122; first compound 8 µM) was 0.378. The relative viability (CAL-12T; first compound 0.08 µM) was 0.308, the relative viability (CAL-12T; first compound 0.253 µM) was 0.312 and the relative viability (CAL-12T; first compound 0.8 µM) was 0.308. The relative viability (CAL-12T; first compound 2.53 µM) was 0.318, the relative viability (CAL-12T; first compound 8 µM) was 0.427 and the relative viability (NCI-H1651; first compound 0.08 µM) was 0.618. The relative viability (NCI-H1651; first compound 0.253 µM) was 0.697, the relative viability (NCI-H1651; first compound 0.8 µM) was 0.655 and the relative viability (NCI-H1651; first compound 2.53 µM) was 0.611. The relative viability (NCI-H1651; first compound 8 µM) was 0.567, the relative viability (LK-2; first compound 0.08 µM) was 0.173 and the relative viability (LK-2; first compound 0.253 µM) was 0.178. For the same molecule, the relative viability (LK-2; first compound 2.53 µM) was 0.167, the relative viability (LK-2; first compound 8 µM) was 0.171 and the relative viability (NCI-H441; first compound 0.08 µM) was 0.655. The relative viability (NCI-H441; first compound 0.253 µM) was 0.614, the relative viability (NCI-H441; first compound 0.8 µM) was 0.569 and the relative viability (NCI-H441; first compound 2.53 µM) was 0.546. For the same molecule, the relative viability (NCI-H441; first compound 8 µM) was 0.618, the relative viability (NCI-H1734; first compound 0.08 µM) was 0.277 and the relative viability (NCI-H1734; first compound 0.253 µM) was 0.289. The relative viability (NCI-H1734; first compound 2.53 µM) was 0.255, the relative viability (NCI-H1734; first compound 8 µM) was 0.271 and the relative viability (NCI-H2170; first compound 0.08 µM) was 0.752. It also gave a relative viability (NCI-H2170; first compound 0.253 µM) of 0.734, a relative viability (NCI-H2170; first compound 0.8 µM) of 0.651 and a relative viability (NCI-H2170; first compound 2.53 µM) of 0.653. It also gave a relative viability (NCI-H2170; first compound 8 µM) of 0.55, a relative viability (NCI-H647; first compound 0.08 µM) of 0.24 and a relative viability (NCI-H647; first compound 0.253 µM) of 0.327. For the same molecule, the relative viability (NCI-H647; first compound 0.8 µM) was 0.264, the relative viability (NCI-H647; first compound 2.53 µM) was 0.221 and the relative viability (NCI-H647; first compound 8 µM) was 0.214.
